Test results published in ChEMBL document CHEMBL1201862, “PubChem BioAssay data set” (2004).
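Compound exposure: 48 hours, 5 concentrations, 96-well plates. At the GI50, growth is halved.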 Active and inactive are the calls of the source. Cut-off read from the data, not from the text of the source: active = GI50 up to about 1.1 µM and inactive = higher.

Key:
Assay in all cases: DTP human tumour cell line panel, 48 h
786-0 = test system: 786-0
SK-MEL-5 = test system: SK-MEL-5
A498 = test system: A498
SN12C = test system: SN12C
HCT-116 = test system: HCT-116
KM12 = test system: KM12
IGROV-1 = test system: IGROV-1
K562 = test system: K562
OVCAR-3 = test system: OVCAR-3
RXF 393 = test system: RXF 393
SNB-78 = test system: SNB-78
TK-10 = test system: TK-10
CCRF-CEM = test system: CCRF-CEM
HOP-92 = test system: HOP-92
MDA-MB-435 = test system: MDA-MB-435
MDA-MB-231 = test system: MDA-MB-231
MCF7 = test system: MCF7
BT-549 = test system: BT-549
PC-3 = test system: PC-3

Structure (SMILES)	GI50 (786-0)	GI50 (SK-MEL-5)	GI50 (A498)	GI50 (SN12C)	GI50 (HCT-116)	GI50 (KM12)	GI50 (IGROV-1)	GI50 (K562)	GI50 (OVCAR-3)	GI50 (RXF 393)	GI50 (SNB-78)	GI50 (TK-10)	GI50 (CCRF-CEM)	GI50 (HOP-92)	GI50 (MDA-MB-435)	GI50 (MDA-MB-231)	GI50 (MCF7)	GI50 (BT-549)	GI50 (PC-3)
CC(=O)OC1C(=O)C(O)C(C)OC1O[C@@H]1C[C@@]2(C)[C@@H]3CC=C4[C@@H](C[C@H](O)C(=O)C4(C)C)[C@]3(C)C(=O)C[C@]2(C)[C@H]1[C@@](C)(O)C(=O)/C=C/C(C)(C)O (stereo partly drawn)	1.53 µM (inactive)	1.47 µM (inactive)	0.577 µM (active)	2.61 µM (inactive)	2.2 µM (inactive)	> 7.53 µM (inactive)	2.6 µM (inactive)	3.35 µM (inactive)	1.7 µM (inactive)	0.845 µM (active)	0.916 µM (active)	1.85 µM (inactive)	0.662 µM (active)	1.28 µM (inactive)					
CN(/N=C/c1ccnc2ccccc12)c1c([N+](=O)[O-])cc([N+](=O)[O-])cc1[N+](=O)[O-]	> 100 µM (inactive)	34.2 µM (inactive)	48.8 µM (inactive)	> 100 µM (inactive)		> 100 µM (inactive)	> 100 µM (inactive)	30.7 µM (inactive)	41.6 µM (inactive)	39.2 µM (inactive)	67.3 µM (inactive)	> 100 µM (inactive)	18.3 µM (inactive)	28.1 µM (inactive)					
C[C@]12CCc3nonc3C1CC[C@@H]1C2CC[C@@]2(C)C1CC[C@@H]2O (stereo partly drawn)	> 100 µM (inactive)	> 100 µM (inactive)	> 100 µM (inactive)	> 100 µM (inactive)		> 100 µM (inactive)	> 100 µM (inactive)	> 100 µM (inactive)	> 100 µM (inactive)	> 100 µM (inactive)	> 100 µM (inactive)	> 100 µM (inactive)	> 100 µM (inactive)	94.4 µM (inactive)					
CN1C(=O)CSC1=S [3-METHYL-RHODANINE]	> 100 µM (inactive)	> 100 µM (inactive)	> 100 µM (inactive)	> 100 µM (inactive)	> 100 µM (inactive)	> 100 µM (inactive)	> 100 µM (inactive)	> 100 µM (inactive)	> 100 µM (inactive)	> 100 µM (inactive)	> 100 µM (inactive)	> 100 µM (inactive)	> 100 µM (inactive)	> 100 µM (inactive)					
COc1cccc(C2=NC(C(C)C)CO2)c1OC (stereo not drawn)	> 100 µM (inactive)	> 100 µM (inactive)	> 100 µM (inactive)	> 100 µM (inactive)		> 100 µM (inactive)	> 100 µM (inactive)	> 100 µM (inactive)	> 100 µM (inactive)	> 100 µM (inactive)	> 100 µM (inactive)	> 100 µM (inactive)	> 100 µM (inactive)	> 100 µM (inactive)					
CCOC(=O)CC(NCc1ccc(/N=C/c2nc3ccc(C(F)(F)F)cc3nc2-c2ccccc2)cc1)C(=O)OCC (stereo not drawn)	15.3 µM (inactive)	> 78.7 µM (inactive)	> 61.1 µM (inactive)	> 100 µM (inactive)	> 55.5 µM (inactive)	> 100 µM (inactive)	> 63.1 µM (inactive)	> 100 µM (inactive)	> 100 µM (inactive)	15.2 µM (inactive)	> 72.1 µM (inactive)	23.3 µM (inactive)	> 100 µM (inactive)	> 100 µM (inactive)					
COc1cc([C@@H]2OC(=O)C3C2C(=O)O[C@H]3c2ccc(O)c(OC)c2)ccc1O (stereo partly drawn)	> 100 µM (inactive)	> 100 µM (inactive)	> 100 µM (inactive)	> 100 µM (inactive)	> 100 µM (inactive)	> 100 µM (inactive)	> 100 µM (inactive)	> 100 µM (inactive)	> 100 µM (inactive)	> 100 µM (inactive)	> 100 µM (inactive)	> 100 µM (inactive)	> 100 µM (inactive)	> 100 µM (inactive)					
C/C(COc1ccccc1)=N\NC(N)=S	> 100 µM (inactive)	91.4 µM (inactive)	> 100 µM (inactive)	> 100 µM (inactive)	> 100 µM (inactive)	68.1 µM (inactive)	> 100 µM (inactive)	> 100 µM (inactive)	> 100 µM (inactive)	> 100 µM (inactive)	> 100 µM (inactive)	> 100 µM (inactive)	61.7 µM (inactive)	> 100 µM (inactive)					
O=C(N/N=C(/CCN1CCCC1)CC(c1ccccc1)c1c(O)c2ccccc2oc1=O)c1ccncc1 (stereo not drawn)	> 100 µM (inactive)	> 100 µM (inactive)	> 100 µM (inactive)	> 100 µM (inactive)	> 100 µM (inactive)	> 100 µM (inactive)	> 100 µM (inactive)	87.1 µM (inactive)	> 100 µM (inactive)	> 100 µM (inactive)	> 100 µM (inactive)	> 100 µM (inactive)	50.8 µM (inactive)	35 µM (inactive)					
CCOC(=O)C1=C(O)C(=O)c2ccsc2C1=O	> 100 µM (inactive)	> 100 µM (inactive)	> 100 µM (inactive)	> 100 µM (inactive)	> 100 µM (inactive)	> 100 µM (inactive)	> 100 µM (inactive)	> 100 µM (inactive)	> 100 µM (inactive)	> 100 µM (inactive)	> 100 µM (inactive)	> 100 µM (inactive)	> 100 µM (inactive)	> 100 µM (inactive)					
COc1ccc2nc3ccccc3c(NCCCCN(C)CCCl)c2c1	0.0177 µM (active)	0.0773 µM (active)	0.0435 µM (active)	0.0184 µM (active)	0.0199 µM (active)	0.0407 µM (active)	0.0408 µM (active)	0.0231 µM (active)	0.0392 µM (active)	0.0914 µM (active)	0.0596 µM (active)	0.638 µM (active)	0.013 µM (active)	0.0604 µM (active)	78.3 nM (active)	144 nM (active)	< 10 nM (active)	< 10 nM (active)	56.9 nM (active)
C=CCCCCCCCC(O)C1C[C@H](O)C(CCCCC)O1 (stereo partly drawn)	17.9 µM (inactive)	18.3 µM (inactive)	19.8 µM (inactive)	19.5 µM (inactive)	17.6 µM (inactive)	19.5 µM (inactive)	20.2 µM (inactive)	20.7 µM (inactive)	17.5 µM (inactive)	17.1 µM (inactive)	20 µM (inactive)	19 µM (inactive)	19.3 µM (inactive)	15.7 µM (inactive)					
Cn1cc2ccccc2c1-c1nc(F)nc(Oc2ccc3c(c2)CC[C@@H]2C3CC[C@@]3(C)C2C[C@H](O)[C@@H]3O)n1 (stereo partly drawn)	16.4 µM (inactive)	17.7 µM (inactive)	27.3 µM (inactive)	13.7 µM (inactive)	14.3 µM (inactive)	17.7 µM (inactive)	20.7 µM (inactive)	18.7 µM (inactive)	20.7 µM (inactive)	19.4 µM (inactive)	19.6 µM (inactive)	20.4 µM (inactive)	2.66 µM (inactive)	22.3 µM (inactive)					
O=C1c2ccc3c4ccccc4n(Cc4ccccc4)c3c2C(=O)N1c1ccccc1	13.8 µM (inactive)	16.1 µM (inactive)	25.1 µM (inactive)	16.5 µM (inactive)	16.4 µM (inactive)	15.5 µM (inactive)	17.8 µM (inactive)	6.07 µM (inactive)	5.5 µM (inactive)	12.7 µM (inactive)	27.7 µM (inactive)	15.6 µM (inactive)	1.88 µM (inactive)	11.4 µM (inactive)					
